This note sets out measurements from US10472341B2, “Bicyclic tetrahydrothiazepine derivatives useful for the treatment of neoplastic and/or infectious diseases” (APEIRON BIOLOGICS AG, priority 2015, dated 2019).

The test system of assay [1] is aCD3/aCD28-stimulated human CD4+-T-cells. Nature of the assay: IL-2 production and activation markers in aCD3/aCD28 stimulated isolated human CD4+-T-cells. Type of assay: cell-based. To be noted: IL-2 production at 3 μM compound. As to the method: • Buffy coat content was transferred to sterile plastic bottle and filled up to 480 ml with PBS, and distributed equally to 16×50 ml tubes (30 ml/tube) • Underlayed with ˜11 ml Lymphoprep and centrifuged 20 min (2200 rpm) • The interphase containing lymphocytes was taken off with transfer pipette, cells were washed twice with PBS and pooled to one tube to determine cell count (Coulter Diff ACT) Isolation of Immune Cell Subfractions from PBMCs by MACS • PBMCs were resuspended in MACS buffer (80 μl MACS-buffer/10^7 cells) and cells were isolated with Auto-MACS device using respective kits following manufacturer's recommendations TCR Stimulation and Measurement of T Cell Activation
Isolated T cells were plated in Xvivo medium at 1.5*10 ^5 cells per in 96 well culture plates and TCR-stimulated with anti-CD3/28 mAbs in the presence of compound as indicated. Cytokine production was determined at 24 h or 48 h following TCR stimulation in cell culture supernatants using commercially available ELISA kits (BD and eBioscience) as recommended by the manufacturer. T cell proliferation and CD25 expression (CD25-PC5 reagent purchased from Beckman Coulter) was determined by flow cytometry (Beckman-Coulter FC500) and analysed with Kaluza Software. For measurement of CD69 expression, isolated CD4 and CD8 T cells were plated in Xvivo medium at […] per in 96 well culture plates and TCR-stimulated with anti-CD3/28 mAbs in the presence of compound. CD69 expression was determined at 24 h following TCR stimulation by flow cytometry (CD4eF450, CD8APCeF780 and CD69-PC7 reagent purchased from eBioscience) and analysed with Kaluza Software.
Buffy coats were obtained from Austrian Red Cross, diluted 3 fold with PBS and layered onto an isotonic Ficoll separating solution d=1.077 g/m in 50 ml centrifuge tubes. The tubes were centrifuged at 914 g for 25 min at room temperature with the brakes off. The PBMC layer was removed and washed twice with ice-cold PBS. CD4 T cells were isolated using CD4 microbeads (Milteny) and the AutoMACS device following manufacturer's instructions.
Compound examples of the present invention were classified according to the following activity criteria and are listed in Table 4a: • Activity Class A: IL-2 production at 3 μM compound concentration >10 ng/mL • Activity Class B: IL-2 production at 3 μM compound concentration between 2-10 ng/mL • Activity Class C: IL-2 production at 3 μM compound concentration between 2-fold increase as compared to mean IL-2 production of stimulated cells in the absence of compounds and <2 ng/mL

The subject of assay [2] is aCD3/aCD28-stimulated human PBMCs. Put plainly: Cytokine production in aCD3/aCD28 stimulated human PBMCs. It counts as cell-based. To be noted: PBMC, 18 h. As to the method: In order to determine the immune modulatory effect of compounds of compounds of the present invention in human PBMCs, compounds were assessed in the following assay set-up:
Buffy coats were obtained from a local hospital, diluted 3 fold with PBS and layered onto an isotonic Ficoll separating solution d=1.077 g/mL in 50 mL centrifuge tubes. The tubes were centrifuged at 914 g for 25 min at room temperature with the brakes off. The PBMC layer was removed and washed twice with ice-cold PBS. Erythrocytes were lysed by addition of ddH2O and cells were resuspended in X-Vivo15 (Lonza).
1e6 cells/mL were stimulated with soluble anti CD3/CD28 antibodies (1 μg/mL both, clones OKT3 and 28.2) in the presence of described compounds. Cells were incubated for 18 h at 37° C., 5% CO2. Assay plates were centrifuged at 400 g for 5 min and supernatants harvested. Cytokine concentration in tissue culture supernatants were determined with MSD or HTRF kits (MSD and Cisbio), according to manufacturer's instructions.

Where [3] appears, read: enhancement of IFN-γ production, read-out: Activity Class IFN-γ.
The mark [4] stands for this setting: enhancement of IL-2 production, read-out: Activity Class IL-2.

Counter-ions that a name gives are not always drawn. Like-named read-outs stand apart in the source and are kept apart here.

For `Cl.N[C@H]1CSc2ccc(C(=O)NC3CCOCC3)cc2N(Cc2ccc(OC(F)(F)F)cc2)C1=O` [Example 8, (3R)-3-amino-N-(oxan-4-yl)-4-oxo-5-{[4-(trifluoromethoxy)phenyl]methyl}-2,3,4,5-tetrahydro-1,5-benzothiazepine-7-carboxamide hydrochloride], in assay [1], the “Activity Class CD4+” value is “C (IL-2 production at 3 μM compound concentration between 2-fold increase as compared to mean IL-2 production of stimulated cells in the absence of compounds and <2 ng/mL)”.
The same measure, in the same setting: to `CC(=O)NCCCCCOc1ccc(CNC(=O)c2ccc3c(c2)N(Cc2ccc(OC(F)(F)F)cc2)C(=O)[C@@H](N)CS3)cc1.Cl` [Example 19, (3R)-3-amino-N-({4-[(5-acetamidopentyl)oxy]phenyl}methyl)-4-oxo-5-{[4-(trifluoromethoxy)phenyl]methyl}-2,3,4,5-tetrahydro-1,5-benzothiazepine-7-carboxamide hydrochloride] belongs “C (IL-2 production at 3 μM compound concentration between 2-fold increase as compared to mean IL-2 production of stimulated cells in the absence of compounds and <2 ng/mL)”.
Same read-out and setting: to `CC(C)CONC(=O)c1ccc2c(c1)N(Cc1ccc(Cl)cc1)C(=O)[C@@H](N)CS2.Cl` [Example 62, (3R)-3-amino-5-[(4-chlorophenyl)methyl]-N-(2-methylpropoxy)-4-oxo-2,3,4,5-tetrahydro-1,5-benzothiazepine-7-carboxamide hydrochloride] belongs “C (IL-2 production at 3 μM compound concentration between 2-fold increase as compared to mean IL-2 production of stimulated cells in the absence of compounds and <2 ng/mL)”; to `C[C@H](NC(=O)c1ccc2c(c1)N(Cc1ccc(Cl)cc1)C(=O)[C@@H](N)CS2)c1ccc(F)cc1.Cl` [Example 49, (3R)-3-amino-5-[(4-chlorophenyl)methyl]-N-[(1S)-1-(4-fluorophenyl)ethyl]-4-oxo-2,3,4,5-tetrahydro-1,5-benzothiazepine-7-carboxamide hydrochloride], “C (IL-2 production at 3 μM compound concentration between 2-fold increase as compared to mean IL-2 production of stimulated cells in the absence of compounds and <2 ng/mL)”.
On the same count and under the same terms, the result for `CCCCNC(=O)c1ccc2c(c1)N(Cc1ccc(N3CCOCC3)cc1)C(=O)[C@@H](N)CS2.Cl` [Example 13, (3R)-3-amino-N-butyl-5-{[4-(morpholin-4-yl)phenyl]methyl}-4-oxo-2,3,4,5-tetrahydro-1,5-benzothiazepine-7-carboxamide hydrochloride] reads “C (IL-2 production at 3 μM compound concentration between 2-fold increase as compared to mean IL-2 production of stimulated cells in the absence of compounds and <2 ng/mL)”; that for `CC(C)CONC(=O)c1ccc2c(c1)N(Cc1ccc(Cl)cc1)C(=O)[C@@H](N)CS2(=O)=O.Cl` [Example 81, (3R)-3-amino-5-[(4-chlorophenyl)methyl]-N-(2-methylpropoxy)-1,1,4-trioxo-2,3,4,5-tetrahydro-1λ^6,5-benzothiazepine-7-carboxamide hydrochloride], “C (IL-2 production at 3 μM compound concentration between 2-fold increase as compared to mean IL-2 production of stimulated cells in the absence of compounds and <2 ng/mL)”; that for `Cl.N[C@H]1CSc2cc(F)c(C(=O)NNc3ccc(F)cc3)cc2N(Cc2ccc(Cl)cc2)C1=O` [Example 52, (3R)-3-amino-5-[(4-chlorophenyl)methyl]-8-fluoro-N′-(4-fluorophenyl)-4-oxo-2,3,4,5-tetrahydro-1,5-benzothiazepine-7-carbohydrazide hydrochloride], “C (IL-2 production at 3 μM compound concentration between 2-fold increase as compared to mean IL-2 production of stimulated cells in the absence of compounds and <2 ng/mL)”.
Turning to `Cl.N[C@H]1CSc2ccc(C(=O)NCc3ccc(F)cc3)cc2N(Cc2ccc(-c3csnn3)cc2)C1=O` [Example 32, (3R)-3-amino-N-[(4-fluorophenyl)methyl]-4-oxo-5-{[4-(1,2,3-thiadiazol-4-yl)phenyl]-methyl}-2,3,4,5-tetrahydro-1,5-benzothiazepine-7-carboxamide hydrochloride], in assay [1], the “Activity Class CD4+” value is “C (IL-2 production at 3 μM compound concentration between 2-fold increase as compared to mean IL-2 production of stimulated cells in the absence of compounds and <2 ng/mL)”.
The same measure, in the same setting: the result for `N[C@H]1CSc2ccc(C(=O)NCC3CCOCC3)cc2N(Cc2ccc(F)cc2)C1=O` [Example 45, (3R)-3-amino-5-[(4-fluorophenyl)methyl]-N-(oxan-4-ylmethyl)-4-oxo-2,3,4,5-tetrahydro-1,5-benzothiazepine-7-carboxamide] reads “C (IL-2 production at 3 μM compound concentration between 2-fold increase as compared to mean IL-2 production of stimulated cells in the absence of compounds and <2 ng/mL)”; that for `CCCCNC(=O)c1cc2c(cc1F)SC[C@H](N)C(=O)N2Cc1ccc2ccccc2n1.Cl.Cl` [Example 112, (3R)-3-amino-N-butyl-8-fluoro-4-oxo-5-(quinolin-2-ylmethyl)-2,3,4,5-tetrahydro-1,5-benzothiazepine-7-carboxamide dihydrochloride], “C (IL-2 production at 3 μM compound concentration between 2-fold increase as compared to mean IL-2 production of stimulated cells in the absence of compounds and <2 ng/mL)”.
Take `N[C@H]1CS(=O)(=O)c2ccc(C(=O)N[C@@H]3CC3(F)F)cc2N(Cc2ccccc2)C1=O` [Example 167, (3R)-3-amino-5-benzyl-N-[(1R)-2,2-difluorocyclopropyl]-1,1,4-trioxo-2,3,4,5-tetrahydro-1λ^6,5-benzothiazepine-7-carboxamide]: the EC50 in assay [2] (setting [3]) and in assay [2] (setting [4]) was over 5.01 µM each time.
Consider `N[C@H]1CS(=O)(=O)c2ccc(C(=O)NCCCC(F)(F)F)cc2N(Cc2ccccc2)C1=O` [Example 162, (3R)-3-amino-5-benzyl-1,1,4-trioxo-N-(4,4,4-trifluorobutyl)-2,3,4,5-tetrahydro-1λ^6,5-benzothiazepine-7-carboxamide], for which the EC50 in assay [2] (setting [3]) and in assay [2] (setting [4]) was over 5.01 µM in each case.
For the molecule `COc1ccc(CN2C(=O)[C@@H](N)CS(=O)(=O)c3cc(F)c(C(=O)NC4CC4(F)F)cc32)cc1C(F)(F)F` (stereo partly drawn) [Example 117, (3R)-3-amino-N-(2,2-difluorocyclopropyl)-8-fluoro-5-{[4-methoxy-3-(trifluoromethyl)phenyl]methyl}-1,1,4-trioxo-2,3,4,5-tetrahydro-1λ^6,5-benzothiazepine-7-carboxamide hydrochloride], the EC50 in assay [2] (setting [3]) is under 1.58 µM; in assay [2] (setting [4]) it was over 5.01 µM.
Taken in the same sequence, the figures for `COCCNC(=O)c1cc2c(cc1F)S(=O)(=O)C[C@H](N)C(=O)N2Cc1ccc(Cl)cc1` [Example 120, (3R)-3-amino-5-[(4-chlorophenyl)methyl]-8-fluoro-N-(2-methoxyethyl)-1,1,4-trioxo-2,3,4,5-tetrahydro-1λ^6,5-benzothiazepine-7-carboxamide hydrochloride] were over 5.01 µM and over 5.01 µM.
Taken in the same sequence, the figures for `C[C@@H](NC(=O)c1ccc2c(c1)N(Cc1ccc(Cl)cc1)C(=O)[C@@H](N)CS2(=O)=O)C1CCOCC1` [Example 166, (3R)-3-amino-5-[(4-chlorophenyl)methyl]-N-[(1R)-1-(oxan-4-yl)ethyl]-1,1,4-trioxo-2,3,4,5-tetrahydro-1λ^6,5-benzothiazepine-7-carboxamide] were over 5.01 µM and over 5.01 µM.
The like results for `N[C@H]1CS(=O)(=O)c2ccc(C(=O)NC3CC(F)(F)C3)cc2N(Cc2ccccc2F)C1=O` [Example 148, (3R)-3-amino-N-(3,3-difluorocyclobutyl)-5-[(2-fluorophenyl)methyl]-1,1,4-trioxo-2,3,4,5-tetrahydro-1λ^6,5-benzothiazepine-7-carboxamide] were, in that order, 1.58 to 5.01 µM and over 5.01 µM.
